# System: orthotopic 4T1 breast tumors
# Assay: PET-CT imaging of tumor accumulation in orthotopic 4T1 breast tumor mice
# Type: in vivo, Balb/c mice
# Settings: scans at 10 min, 2, 6, 12, 24, 48 h
substance,measurement,value
Cys-Tyr-Ahx-LinTT1 [LinTT1-Tyr-^124I-PS],time post injection at which tumor accumulation is seen by PET,2 h
